Measurements from patent publication US20220120736A1, “METHODS AND ASSAYS FOR MODULATING GENE TRANSCRIPTION BY MODULATING CONDENSATES” (Whitehead Institute for Biomedical Research, priority 2018, published 2022).

Key:
[1] = test system: ER Y537S, ER D538G, ER-YAP1, ER-PCDH11X condensates with MED1; assay: In vitro droplet formation assay, mutant ER GFP fusion proteins and MED1; type: biochemical; conditions: all four mutant ER proteins; ligand 100 uM
Procedure: Recombinant GFP or mCherry fusion proteins were concentrated and desalted to an appropriate protein concentration and 125 mM NaCl using Amicon Ultra centrifugal filters (30K MWCO, Millipore). Recombinant proteins were added to solutions at varying concentrations with indicated final salt and 10% PEG-8000 as crowding agent in Droplet Formation Buffer (50 mM Tris-HCl pH 7.5, 10% glycerol, 1 mM DTT). The protein solution was immediately loaded onto a homemade chamber comprising a glass slide with a coverslip attached by two parallel strips of double-sided tape. Slides were then imaged with an Andor confocal microscope with a 150× objective. Unless indicated, images presented are of droplets settled on the glass coverslip. […] One microliter of this concentrated stock was used in a 10 uL droplet formation reaction to achieve a final concentration of 100 uM. To calculate enrichment for the in vitro droplet assay, droplets were defined as a region of interest in FIJI by the MED1 scaffold channel, and the maximum signal of the ER client within that droplet was determined. Alternatively, maximum signal of MED1 was measured. In all cases, the maximum signal was divided by the background client signal in the image to generate a Cin/out.

[2] = target: T1, OCT4 (FKBP-tagged) (Mus musculus, UniProt P20263+Q8C7D2); assay: ChIP-seq after OCT4 degradation in OCT4-FKBP ESCs; type: cell-based; conditions: dTag 24 hours versus DMSO
T1 construct: an ESC line bearing endogenous knock-in of DNA encoding the FKBP protein fused to OCT4; HA (C); endogenous in cells; host or cells: V6.5 mouse ES cells (Med1-mEGFP background), homozygous Oct4-FKBP knock-in
Procedure: mES were grown to 80% confluence in 2i media. 1% formaldehyde in PBS was used for crosslinking of cells for 15 minutes, followed by quenching with Glycine at a final concentration of 125 mM on ice. Cells were washed with cold PBS and harvested by scraping cells in cold PBS. Collected cells were pelleted at 1000 g for 3 minutes at 4° C., flash frozen in liquid nitrogen and stored at −80° C. All buffers contained freshly prepared cOmplete protease inhibitors (Roche, 11873580001). […] The pellet was resuspended in sonication buffer (20 mM Tris-HCl pH 8.0, 150 mM NaCl, 2 mM EDTA pH 8.0, 0.1% SDS, and 1% Triton X-100, 1 3 protease inhibitors) and then sonicated on a Misonix 3000 sonicator for 10 cycles at 30 s each on ice (18-21 W) with 60 s on ice between cycles. Sonicated lysates were cleared once by centrifugation at 16,000 rcf. for 10 minutes at 4° C. Input material was reserved and the remainder was incubated overnight at 4° C. with magnetic beads bound with antibody (Table S4) to enrich for DNA fragments bound by the indicated factor. […]
ChIP-Seq data were aligned to the mm9 version of the mouse reference genome using bowtie with parameters -k 1 -m 1 -best and -l set to read length. […]

T1 sequence (P20263 with tags, fused parts or gaps): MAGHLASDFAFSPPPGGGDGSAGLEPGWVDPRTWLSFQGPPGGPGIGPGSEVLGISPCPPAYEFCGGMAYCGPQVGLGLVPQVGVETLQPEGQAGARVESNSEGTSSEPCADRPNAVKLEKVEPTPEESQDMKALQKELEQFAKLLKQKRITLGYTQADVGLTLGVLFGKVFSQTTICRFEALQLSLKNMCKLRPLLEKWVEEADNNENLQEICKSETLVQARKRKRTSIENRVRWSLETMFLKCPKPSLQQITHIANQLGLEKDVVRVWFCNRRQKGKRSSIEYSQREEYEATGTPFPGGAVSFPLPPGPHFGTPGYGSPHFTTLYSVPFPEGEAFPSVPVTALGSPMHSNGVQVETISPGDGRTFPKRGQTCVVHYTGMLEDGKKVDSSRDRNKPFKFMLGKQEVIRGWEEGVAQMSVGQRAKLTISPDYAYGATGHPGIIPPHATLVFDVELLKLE
T1 sequence (Q8C7D2 whole entry, the tested form may be a part): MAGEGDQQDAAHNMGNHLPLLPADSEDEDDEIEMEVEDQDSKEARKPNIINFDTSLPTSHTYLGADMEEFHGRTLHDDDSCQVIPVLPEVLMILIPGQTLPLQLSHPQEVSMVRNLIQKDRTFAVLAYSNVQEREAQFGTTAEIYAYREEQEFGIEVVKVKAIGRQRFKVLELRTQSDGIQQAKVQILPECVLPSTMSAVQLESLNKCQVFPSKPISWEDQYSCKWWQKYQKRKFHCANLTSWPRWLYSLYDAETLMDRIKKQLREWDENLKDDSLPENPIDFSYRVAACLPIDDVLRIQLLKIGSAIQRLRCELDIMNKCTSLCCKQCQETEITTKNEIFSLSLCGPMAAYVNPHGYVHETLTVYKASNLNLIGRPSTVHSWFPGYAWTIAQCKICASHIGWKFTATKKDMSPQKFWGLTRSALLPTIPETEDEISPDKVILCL
T1 sequence (Q3U1J4 whole entry partner, the tested form may be a part): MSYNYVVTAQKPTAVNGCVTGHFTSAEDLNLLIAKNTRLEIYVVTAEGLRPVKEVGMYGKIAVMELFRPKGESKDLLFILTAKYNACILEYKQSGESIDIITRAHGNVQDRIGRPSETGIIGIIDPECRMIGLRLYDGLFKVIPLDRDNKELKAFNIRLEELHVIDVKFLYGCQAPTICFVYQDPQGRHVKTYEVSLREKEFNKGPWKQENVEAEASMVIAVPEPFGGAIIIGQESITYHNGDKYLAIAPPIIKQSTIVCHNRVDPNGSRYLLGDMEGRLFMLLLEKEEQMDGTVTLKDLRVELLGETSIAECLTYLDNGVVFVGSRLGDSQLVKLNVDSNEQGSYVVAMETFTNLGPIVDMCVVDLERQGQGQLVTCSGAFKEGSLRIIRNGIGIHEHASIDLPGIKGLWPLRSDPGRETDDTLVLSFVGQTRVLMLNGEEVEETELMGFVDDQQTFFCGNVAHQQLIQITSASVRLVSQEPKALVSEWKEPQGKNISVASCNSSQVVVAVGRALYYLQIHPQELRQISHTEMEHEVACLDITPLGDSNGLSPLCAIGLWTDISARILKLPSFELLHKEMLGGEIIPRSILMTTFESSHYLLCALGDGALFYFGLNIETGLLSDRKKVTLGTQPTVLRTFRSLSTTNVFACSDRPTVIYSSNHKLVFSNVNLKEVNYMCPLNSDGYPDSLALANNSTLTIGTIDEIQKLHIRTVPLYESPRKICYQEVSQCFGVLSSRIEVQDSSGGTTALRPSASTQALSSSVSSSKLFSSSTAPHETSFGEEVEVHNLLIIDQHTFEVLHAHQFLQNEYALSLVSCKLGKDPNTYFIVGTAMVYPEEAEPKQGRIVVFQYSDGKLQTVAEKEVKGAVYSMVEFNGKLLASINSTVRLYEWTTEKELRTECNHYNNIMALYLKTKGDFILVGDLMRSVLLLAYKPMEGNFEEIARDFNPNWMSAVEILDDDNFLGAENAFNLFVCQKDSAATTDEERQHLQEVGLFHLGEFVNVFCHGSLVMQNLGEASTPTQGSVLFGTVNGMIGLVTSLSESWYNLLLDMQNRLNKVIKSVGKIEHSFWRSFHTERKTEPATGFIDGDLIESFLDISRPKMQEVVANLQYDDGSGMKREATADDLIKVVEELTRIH

| SMILES | Condensate formation of mutant ER proteins with MED1 [1] | OCT4 and MED1 occupancy at enhancers (SEs versus TEs) [2] |
| --- | --- | --- |
| C[C@]12CC[C@@H]3c4ccc(O)cc4CC[C@H]3[C@@H]1CC[C@@H]2O [estrogen, B-Estradiol] | estrogen-independent |  |
| CC[C@H](C(=O)N1CCCC[C@H]1C(=O)O[C@H](CCc1ccc(OC)c(OC)c1)c1ccccc1OCC(=O)NCCCCCCCCNc1ccc2c(c1)C(=O)N(C1CCC(=O)NC1=O)C2=O)c1cc(OC)c(OC)c(OC)c1 (stereo partly drawn) [dTag] |  | reduction of OCT4 and MEM occupancy at enhancers, with the most profound effects occurring at SEs |
| CC/C(=C(\c1ccccc1)c1ccc(OCCN(C)C)cc1)c1ccccc1 [tamoxifen] | tamoxifen-insensitive |  |
